Holding throughout (type): cell-based, human
For experiment [1], the system named is SK-BR3. In words: Apoptosis (PI staining), SK-BR3 cells. On the procedure: (§1) Cell viability assays. Propidium iodide exclusion assay: Cells were stimulated as indicated for 2 days. Subsequently, cells were harvested, washed twice in FACS buffer (PBS containing 1% FCS and 0.1% NaN3) and resuspended in propidium iodide (PI)-containing FACS buffer (4 ug/ml). The extent of cell death was analyzed with a FACSCalibur flow cytometer (Becton Dickinson, Mountain View, Calif.). DAPI staining: MCF-7 cells were plated in chamber slides, and stimulated for 2 days. Cells were washed with PBS and apoptotic nuclei were stained with 1 μg/ml DAPI (Sigma Chemical Co., St. Louis, Mo.). Cells were fixed in 4% paraformaldehyde and examined by fluorescence microscopy.
(§2) To determine if Nod1-dependent apoptosis occurs in other human cell lines, a series of epithelial cell lines were examined where Nod1 was stably expressed to enhance sensitivity to activation of the Nod1 pathway. Cells were treated with TNFα (T) and γTriDAP (γ) in the presence or absence of CHX (C) and monitored for viability by PI staining as a measure of apoptosis (Table 1).

In experiment [2] the test system is CaCo2. Kind of experiment: Apoptosis (PI staining), CaCo2 cells stably expressing Nod1. As to conditions: CaCo2, Nod1 stably expressed; treatment as labelled. The method, then:
as §1, §2

In experiment [3] the test system is MCF-7 Nod2 cells. Kind of experiment: Apoptosis (PI, flow cytometry) in MCF-7 cells over-expressing Nod2. As to conditions: 20 ug/ml plus CHX, 48 h. The method, then:
In FIG. 5A, MCF-7 Blasto, MCF-7 Nod1 and MCF-7 Nod2 were treated with the NOD1 ligand γTriDAP or the Nod2 ligand muramyl dipeptide (MDP)(20 ug/ml each) in the presence or absence of CHX for 48 h. Cells were then incubated with PI and apoptotic cell death was measured by flow cytometry. […] In FIG. 5B, expression of NOD1 and NOD2 was confirmed by Western blot analysis using anti-Myc antibodies for detection of the recombinant proteins. […] MCF-7 Blasto, MCF-7 Nod1 and MCF-7 Nod2 cells were stimulated with γTriDAP or MDP in the presence or absence of CHX (0.5 ug/ml) for 24 h. Cell supernatants were then harvested and assayed for IL-8 secretion.
Cell viability assays. Propidium iodide exclusion assay: Cells were stimulated as indicated for 2 days. […] The extent of cell death was analyzed with a FACSCalibur flow cytometer (Becton Dickinson, Mountain View, Calif.). […] Cells were fixed in 4% paraformaldehyde and examined by fluorescence microscopy.
Experiments were also performed to ascertain whether activation of Nod2 by its specific activator, muramyl dipeptide (MDP), would initiate apoptosis in parental MCF-7 cells or in MCF-7 cells over-expressing Nod2 (MCF-7 Nod2). Thus, γTriDAP or MDP were added to each of these lines and apoptosis (FIG. 5A) and IL-8 production (FIG. 5C) were measured. […]

Experiment [4] has as its system poly(ADP-ribose)polymerase (PARP) and capases 6, 7, 8 and 9. Kind of experiment: Western blot of PARP and caspase cleavage in MCF-7 cells. The settings on record: CHX 0.5 ug/ml, 24 h. On the procedure:
Cleavage of PARP and various caspases was detected by Western blot analysis of cell MCF-7 Blasto, MCF-7 C20 and MCF-7 Nod1 after stimulation with γTriDAP, αTriDAP or medium (control) in the presence or absence of CHX (0.5 ug/ml) for 24 h. Cells were harvested, subjected to western blotting and PARP, caspases, p20, p41/43 and p35 were detected with antibodies reactive thereof.
Western blot analysis and immunoprecipitation. Cells were washed extensively and lysed using lysis buffer containing 50 mM Hepes, 100 mM NaCl, 2 mM EDTA, 10% glycerol, 1% Nonidet P-40, 14 μM pepstatin A, 100 uM leupeptin, 3 mM benzamidine, 1 mM PMSF, 1 mM sodium pyrophosphate, 10 mM sodium orthovanadate, 100 U/ml aprotinin, and 100 mM sodium fluoride. After incubation for 30 min on ice, cell lysates were centrifuged (14000 rpm, 10 min, 4° C.) and the supernatants were recovered. For immunoprecipitation, cell lysates were mixed with 5 μg of antibody for 3 hour at 4° C. under constant agitation. Immune complexes were allowed to bind to 20 μl protein A-Sepharose beads overnight, beads were washed three times with lysis buffer. Immunoprecipitates were separated on SDS-PAGE and transferred to PVDF membranes.
Background: In western blotting, separated proteins are transferred to a membrane and probed.

The test system of experiment [5] is MCF-7 Nod1 cells. In words: Propidium iodide exclusion cell death assay, MCF-7 cells over-expressing Nod1. As to conditions: MCF-7Nod1 cells, cycloheximide and γTriDAP, 48 h treatment. On the procedure:
as §1
To further investigate the role of Nod1 in apoptosis, a variety of cell types were incubated with the Nod1 ligand, […] (γTriDAP), which specifically activates Nod1. The cell types tested included the parental MCF-7 cell line, the Nod1-deficient MCF-7C20 clone, and a cell line engineered to contain an additional human Nod1 allele (MCF-7Nod1) so that Nod1 was over-expressed. To determine whether the resistance of C20 cells to γTriDAP-induced apoptosis resulted from the absence of Nod1, human Nod1 was stably expressed in MCF-7 C20 cells to produce Nod1-sufficient C20 cells (C20/Nod1). As another control, the parental MCF-7 cell line was transfected with an empty retroviral vector to generate MCF-7 Blasto cells. Cells were treated with γTriDAP in the presence or absence of cycloheximide (CHX) and cell death was then determined by propidium iodide staining and flow cytometry.

Non-standard residues stand in square brackets, D forms with d. No end group written: not given here. DAP = diaminopimelic acid

“D-Ala-L-Glu-Diaminopimelic acid ([dA]-Glu-[DAP]; also: Glu joined to DAP through its gamma carboxyl (γTriDAP))”: the apoptosis entry in experiment [1] (SK-BR3, Nod1 stably expressed, treatment as labelled) was “only undergo apoptosis when γTriDAP was added together with TNFα and CHX”; in experiment [2], “poorly responsive”; in experiment [3] it was “produced cell death”. Moreover, in experiment [1] (plus TNFα and cycloheximide (FIG. 9B)), the “apoptosis of SKBR3 cells” value was “highest”. Further, in experiment [4], the “proteolytic cleavage of PARP and capases 6, 7, 8 and 9” value was “resulted in proteolytic cleavage”. For the same substance, the cell death in experiment [5] is reported as around 60%.
